Assay results as given in patent publication US12491452B2, “Extraction method and composition obtained therefrom” (NATURALIA INGREDIENTS S.R.L., priority 2018, dated 2025).
Where two headings read alike, the source gives them in different places.

Experiments:
[1] = cited from earlier work
[2] = Stability of CBDA and CBD in inclusion complexes of Eletta Campana CS inflorescence and HP-β-CD in water, HPLC-UV; assay type: physicochemical; conditions: for cannabinoid concentration: HP-β-CD aqueous extract
Experimental: The official method reported in the German Pharmacopoeia of Cannabis Flos (https://www.MonographCannabisFlos.pdf) comprises three extraction and filtering cycles of 500 mg of inflorescence with 20, 12.5 and 12.5 mL of ethanol 96% respectively. The ethanol liquid phase was brought to a volume of 50 mL in a volumetric flask with clean 96% ethanol. Said extract was filtered on a regenerated cellulose filter with pore diameter 0.45 μm. A 1 mL portion was diluted with 9 mL of 96% ethanol for chromatographic analysis. For each cannabinoid a calibration curve was constructed for the quantification thereof within the extracts and in the aqueous formulations of the inclusion complexes with the inflorescence. The calibration curve was constructed with certified standards (Cerilliant Cannabinoid Reference Standards, Cerilliant Corporation, Texas, USA) in a concentration range of 0.25-1.00 μg/mL. The titrations were performed following the method published by Citti et al. [Citti et al., Journal of Pharmaceutical and Biomedical Analysis 2016, 128, 201-209] with the use of high-performance liquid chromatography coupled with a UV detector (HPLC-UV).
After filtering, both the solutions were then transferred to an amber-colored closed container. One container was kept at ambient temperature (25° C.) in the dark and the other in the refrigerator at 8° C. The concentration of the cannabinoids, in the particular example of CBDA and CBD, was measured at different times to verify the stability thereof, analyzing a portion by HPLC-UV. […] The percentage CBDA concentration difference with reference to time 0 is indicated in brackets.

[3] = cited from earlier work; remark: listed apart in the source

## 2-Hydroxypropyl-γ-cyclodextrin
[1]
  Solubility in pure water (mg/ml) at approx. 25° C.: >500 mg/mL

## 2-hydroxypropyl-β-cyclodextrin
[1]
  Solubility in pure water (mg/ml) at approx. 25° C.: >600 mg/mL

## C=C(C)[C@@H]1CCC(C)=C[C@H]1c1c(O)cc(CCCCC)cc1O [CBD, 2-[(1R,6R)-3-methyl-6-(prop-1-en-2-yl)cyclohex-2-enyl]-5-pentylbenzene-1,3-diol, reference compound]
[2]; 8° C., 0 days
  cannabinoid concentration: 0.16 µg/mL
[2]; 8° C., 14 days
  cannabinoid concentration: 0.12 µg/mL
[2]; 8° C., 45 days
  cannabinoid concentration: 0.17 µg/mL
[2]; 8° C., 60 days
  cannabinoid concentration: 0.14 µg/mL
[2]; 8° C., 100 days
  cannabinoid concentration: 0.17 µg/mL
[2]; 25° C. in the dark, 0 days
  cannabinoid concentration: 0.14 µg/mL
[2]; 25° C. in the dark, 14 days
  cannabinoid concentration: 0.56 µg/mL
[2]; 25° C. in the dark, 45 days
  cannabinoid concentration: 0.78 µg/mL
[2]; 25° C. in the dark, 60 days
  cannabinoid concentration: 1.10 µg/mL
[2]; 25° C. in the dark, 100 days
  cannabinoid concentration: 2.93 µg/mL
[2]; formulation kept at 8° C., 100 days
  stability of the formulation (in words): remain surprisingly stable
[3]; infusion without CD, 25° C., period of 7 days
  drop of concentration in water: 60%
[3]; tisane without CD kept at 4° C., 7 days
  drop of concentration in water: 50%

## C=C(C)[C@@H]1CCC(C)=C[C@H]1c1c(O)cc(CCCCC)c(C(=O)O)c1O [CBDA, 2,4-Dihydroxy-3-[(1R,6R)-3-methyl-6-(1-methylethenyl)-2-cyclohexen-1-yl]-6-pentylbenzoic acid]
[2]
  stability of the formulation (in words): loss (albeit very slow
[2]; 8° C., 14 days
  percentage CBDA concentration difference with reference to time 0: +1.8%
  cannabinoid concentration: 6.94 µg/mL
[2]; 8° C., 45 days
  percentage CBDA concentration difference with reference to time 0: +1.4%
  cannabinoid concentration: 6.91 µg/mL
[2]; 8° C., 60 days
  percentage CBDA concentration difference with reference to time 0: +0.6%
  cannabinoid concentration: 6.86 µg/mL
[2]; 8° C., 100 days
  percentage CBDA concentration difference with reference to time 0: +1.4%
  cannabinoid concentration: 6.91 µg/mL
[2]; 25° C., 14 days
  percentage CBDA concentration difference with reference to time 0: −9.9%
[2]; 25° C., 45 days
  percentage CBDA concentration difference with reference to time 0: −30.7%
[2]; 25° C., 60 days
  percentage CBDA concentration difference with reference to time 0: −47.6%
[2]; 25° C., 100 days
  percentage CBDA concentration difference with reference to time 0: −50.1%
[2]; 8° C., 0 days
  cannabinoid concentration: 6.81 µg/mL
[2]; 25° C. in the dark, 0 days
  cannabinoid concentration: 6.45 µg/mL
[2]; 25° C. in the dark, 14 days
  cannabinoid concentration: 5.81 µg/mL
[2]; 25° C. in the dark, 45 days
  cannabinoid concentration: 4.47 µg/mL
[2]; 25° C. in the dark, 60 days
  cannabinoid concentration: 3.38 µg/mL
[2]; 25° C. in the dark, 100 days
  cannabinoid concentration: 3.21 µg/mL
[3]; infusion without CD, both at 25° C. and at 4° C.
  time beyond which stability in water is not guaranteed: ≤ 14 days

## Randomly methylated β-Cyclodextrin
[1]
  Solubility in pure water (mg/ml) at approx. 25° C.: >500 mg/mL

## Sodium salt of β-CD sulfobutyl ether
[1]
  Solubility in pure water (mg/ml) at approx. 25° C.: >500 mg/mL
